# Laboratory results reported in patent US20220332758A1, “PEPTIDE-BASED COMPOSITIONS AND METHODS FOR TREATING ALZHEIMER'S DISEASE” (Board of Regents, The Universityof Texas System, priority 2019, published 2022).
# How the values were obtained:
# [1] = biological target: T1, proteasome ChT-L activity in SK-N-SH (ATCC HTB-11) cells (Homo sapiens, UniProt P25787+P60900); assay: ChT-L proteasome activity in lysates of SK-N-SH cells treated with TAT peptides; assay type: cell-based; conditions: 1 μM, 24 h
# T1 construct: host or cells: SK-N-SH human neuroblastoma cells
# Procedure: (§1) Cell Culture. Human SK-N-SH neuroblastoma cell line (ATCC® HTB-11™ American Type Culture Collection; Manassas, Va.) were cultured according to ATCC specifications (EMEM, 10% heat-inactivated FBS) The cells at passage 2-4 were treated with 1 μM TAT peptides or the DMSO vehicle diluted with the medium 1: 1000, for 24 h. The content of live cells was determined by the Trypan Blue-exclusion assay. The cells were harvested, washed twice in PBS, resuspended in dilution buffer (as described herein) and stored in −80° C. To prepare lysates, the thawed preparations were vortexed with glass beads and centrifuged for 5 min 5,000×g (4° C.). The supernatant was centrifuged for 20 min 14,000×g (4° C.). The resulting supernatant—“crude lysate” was diluted to 1 mg/mL of total protein with dilution buffer. 1 μg of lysate per assay (reaction buffer: 50 mM Tris/HCl pH 8, 0.1 mM MgCl2, 0.2 mM ATP, 0.1 mM dithiothreitol, 50 μM Suc-LLVY-AMC (SEQ ID NO: 14)) was used for determination of ChT-L activity in a 96-well format, as above.
# [2] = biological target: T2, α face pockets of the 20S core proteasome (Homo sapiens, UniProt P25787+P60900); assay: Competition of TAT peptides with Rpt C-terminal tail peptides for α face pockets (ChT-L activity of 20S); assay type: biochemical
# T2 construct: purified from erythrocytes; purchased Boston Biochem, Inc. or Enzo Life Sciences, Inc; host or cells: human erythrocytes
# From the text: As mentioned herein, the binding pockets on the α face accept “anchors” from natural protein ligands of the 20S core. […] The 10-residue Rpt-derived C-terminal “tail” peptides (“Rpt peptides”) can be used as competitors with the Rpt subunits or with small allosteric ligands. Importantly, the Rpt peptides interject between the subunits with their C-termini, whereas TAT peptides, according to the modeling, use their N-termini for this purpose. To test the specificity of interactions between TAT compounds and the α face, competition experiments were performed. The 20S core was challenged with selected TAT compounds after treatment with Rpt peptides. Peptides of Rpt2 ([…]; SEQ ID NO: 10), Rpt3 ([…]; SEQ ID NO: 11), Rpt5 ([…]; SEQ ID NO: 12) and Rpt6 ([…]; SEQ ID NO: 13) subunits were selected, docking in α3/α4, α1/α2, α5/α6 and α2/α3 pockets, respectively. Tails of Rpt2, 3, and 5 display the canonical HbYX motif, whereas the LeuTrpLys C-terminus of Rpt6 may be considered “pseudo-HbYX”, with a bulky Trp replacing Tyr. Results of the competition experiments are presented as radar plots in FIG. 15. […] This pocket also emerged as the major binding site for (1) and (8). However, these compounds likely weakly competed with the Rpt2 tail for binding to the α3/α4 pocket as well. The α3/α4 pocket seemed to be favored by (6). […] These complex patterns point at the importance of allosteric effects between the α face ligands, the gate and the catalytic chamber.
# Determination of Proteasome Activity. Human housekeeping core (20S) proteasome purified from erythrocytes was purchased from Boston Biochem, Inc. (Cambridge, Mass.) or from Enzo Life Sciences, Inc. (Farmingdale, N.Y.). Multiple batches of the proteasomes were used and performed reproducibly. The stock proteasome was diluted to 0.2 mg/mL working solution in “dilution buffer” (50 mM Tris/HCl, pH 8, 20% glycerol). The following model peptide substrates, releasing fluorescent 7-amino-4-methylcoumarin (AMC) reporter group after cleavage, were used: succinyl-LeuLeuValTyr-AMC (SEQ ID NO: 14) (for the ChT-L peptidase; SucLLVY-AMC; Bachem Bioscience Inc., Philadelphia, Pa.), butoxycarbonyl-LeuArgArg-AMC (T-L; Bachem Bioscience Inc., Philadelphia, Pa.) and carbobenzoxy-LeuLeuGlu-AMC (PGPH; Enzo Life Sciences Inc., Farmingdale, N.Y.). The substrates were used at concentration of 50 μM (ChT-L) or 100 μM (T-L, PGPH). Free AMC (Sigma-Aldrich, St. Louis, Mo.) was used as the standard. The C-terminal peptides derived from Rpt2, Rpt3, Rpt5 and Rpt6 were synthesized (standard solid-phase peptide chemistry) and purified to at least 98% purity by GenScript (Piscataway, N.J.). The TAT peptides, Rpt peptides (except Rpt6) and the peptide substrates were dissolved in anhydrous dimethylsulfoxide (DMSO; Sigma-Aldrich, St. Louis, Mo.) and such stock solutions were stored at −20° C. The total concentration of DMSO in final reaction mixtures never exceeded 3% (vol/vol). The Trp (tryptophan)-containing Rpt6 peptide was dissolved in ultrapure water and stored at −20° C., protected from light. The reaction was carried out in 96-well plates, in 100 μL of reaction mixture that consisted of 45 mM Tris/HCl, pH 8, 100 mM KCl, 1 mM EDTA (reaction buffer) and a fluorogenic peptide substrate, to which 200 ng (nearly […]) of proteasome were added. The addition of KCl/EDTA (ethylenediaminetetraacetic acid) to reaction buffer assured latency of the core proteasome. The proteasome was preincubated with a substrate for 10 min at room temperature, then 1 μL of DMSO or a desired concentration of a TAT peptide in 1 μL of DMSO were added. After mixing, the plate was transferred to a Fluoroskan Ascent plate reader (Thermo Fisher Scientific Inc., Waltham, Mass.) for 1 h (37° C.), with fluorescence readouts once per minute. To test the competition with Rpt derived peptides, the Rpt peptide (1 μM) was added before the TAT peptide to the reaction mixture. […]
# [3] = biological target: 20S proteasome (Homo sapiens, UniProt P25787+P60900); conditions: cited from earlier work
# [4] = biological target: proteasome in SK-N-SH cell lysates (Homo sapiens, UniProt P28074); assay: ChT-L activity of SK-N-SH cell lysates exposed to Bortezomib; assay type: biochemical; conditions: 1 μM
# Procedure: as §1
# [5] = biological target: T3, latent human 20S proteasome (Homo sapiens, UniProt P25787+P60900); assay: Chymotrypsin-like (ChT-L) activity of purified latent human 20S proteasome, Suc-LLVY-AMC substrate; assay type: biochemical
# T3 construct: purified from erythrocytes; purchased Boston Biochem, Inc. or Enzo Life Sciences, Inc; host or cells: human erythrocytes
# Procedure: Determination of Proteasome Activity. Human housekeeping core (20S) proteasome purified from erythrocytes was purchased from Boston Biochem, Inc. (Cambridge, Mass.) or from Enzo Life Sciences, Inc. (Farmingdale, N.Y.). […] The stock proteasome was diluted to 0.2 mg/mL working solution in “dilution buffer” (50 mM Tris/HCl, pH 8, 20% glycerol). The following model peptide substrates, releasing fluorescent 7-amino-4-methylcoumarin (AMC) reporter group after cleavage, were used: succinyl-LeuLeuValTyr-AMC (SEQ ID NO: 14) (for the ChT-L peptidase; SucLLVY-AMC; Bachem Bioscience Inc., Philadelphia, Pa.), butoxycarbonyl-LeuArgArg-AMC (T-L; Bachem Bioscience Inc., Philadelphia, Pa.) and carbobenzoxy-LeuLeuGlu-AMC (PGPH; Enzo Life Sciences Inc., Farmingdale, N.Y.). The substrates were used at concentration of 50 μM (ChT-L) or 100 μM (T-L, PGPH). Free AMC (Sigma-Aldrich, St. Louis, Mo.) was used as the standard. […] The TAT peptides, Rpt peptides (except Rpt6) and the peptide substrates were dissolved in anhydrous dimethylsulfoxide (DMSO; Sigma-Aldrich, St. Louis, Mo.) and such stock solutions were stored at −20° C. The total concentration of DMSO in final reaction mixtures never exceeded 3% (vol/vol). The Trp (tryptophan)-containing Rpt6 peptide was dissolved in ultrapure water and stored at −20° C., protected from light. The reaction was carried out in 96-well plates, in 100 μL of reaction mixture that consisted of 45 mM Tris/HCl, pH 8, 100 mM KCl, 1 mM EDTA (reaction buffer) and a fluorogenic peptide substrate, to which 200 ng (nearly […]) of proteasome were added. […] The proteasome was preincubated with a substrate for 10 min at room temperature, then 1 μL of DMSO or a desired concentration of a TAT peptide in 1 μL of DMSO were added. After mixing, the plate was transferred to a Fluoroskan Ascent plate reader (Thermo Fisher Scientific Inc., Waltham, Mass.) for 1 h (37° C.), with fluorescence readouts once per minute. To test the competition with Rpt derived peptides, the Rpt peptide (1 μM) was added before the TAT peptide to the reaction mixture. The reaction rates were calculated from a linear segment of kinetic curves constructed from measurements in 1-min intervals. Reaction rates were calculated using a linear fit performed with the Slope Analyser and Enzyme Kinetics applications launched within Origin Pro 2019 (OriginLab Corporation, Northampton, Mass.). […] The data are presented as mean±SD from at least three independent experiments.
# Statistical Analysis. Experiments were performed at least in three independent replicates. The results are presented as a mean±SD. A two-tailed t-test was applied to compare the means. The comparisons were allowing for unequal variances with a Welch correction. Abundance of proteasome conformers was compared with the chi squared test and two-sample proportion test. A significance level was set at 0.05. Statistical analysis was performed using statistical procedures offered by OriginPro 2019 (OriginLabs, Northampton, Mass.). Reaction rates were calculated from a smoothed linear segment of kinetic traces using OriginPro 2019. Response curves (activity vs. compound concentration) were fitted with a nonlinear fitting application of OriginPro 2019. The AC50 and maximum activation fold was calculated based on the equations implemented to fit the response curves.
structure (smiles),measurement,setting,value
"N=C(N)NCCC[C@H](NC(=O)CN)C(=O)N[C@@H](CCCCN)C(=O)N[C@@H](CCCCN)C(=O)N[C@@H](CCCNC(=N)N)C(=O)N[C@@H](CCCNC(=N)N)C(=O)N[C@@H](CCC(N)=O)C(=O)N[C@@H](CCCNC(=N)N)C(=O)N[C@@H](CCCNC(=N)N)C(=O)N[C@@H](CCCNC(=N)N)C(=O)N1CCC[C@H]1C(=O)N[C@@H](CO)C(=O)O [(1), reference compound]",proteasome ChT-L activity in lysates from treated cells vs control lysates,[1],lack of significant activation
same,enhanced activation with Rpt tails,[2]; 1 μM Rpt peptide,"enhanced activation in the presence of one of Rpt tails, namely Rpt5 or Rpt6"
same,competition with Rpt tail peptides,[2]; 1 μM Rpt peptide added before the TAT peptide,weakly negative score for the Rpt2 tail to the presumed major competitor Rpt3
same,degradation by 20S proteasome,[3],digested by 20S proteasome
CC(C)C[C@H](NC(=O)[C@H](Cc1ccccc1)NC(=O)c1cnccn1)B(O)O [Bortezomib],effect on ChT-L activity of cell lysates (in words),[4],almost complete abrogation of ChT-L activity
"CC(C)(NC(=O)C(CCC(N)=O)NC(=O)C(CCCNC(=N)N)NC(=O)C(CCCNC(=N)N)NC(=O)C(CCCCN)NC(=O)C(CCCCN)NC(=O)C(CCCNC(=N)N)NC(=O)CN)C(=O)NC(=O)C(C)(C)C(=O)NC(CCC(N)=O)C(=O)NC(CCCNC(=N)N)C(=O)NC(CCCNC(=N)N)C(=O)NC(CCCCN)C(=O)NC(CCCCN)C(=O)NC(CCCNC(=N)N)C(=O)NCC(=O)O (stereo not shown) [Tat5-8, 9 Aib, GRKKRRQ-AibG-QRRKKRG]",AC50,"[5]; 20S proteasome AC50, Table 1, ChT-L activity, Suc-LLVY-MCA, purified human housekeeping 20S",183 nM
same,activation of ChT-L activity of 20S proteasome (in words),"[5]; in vitro, latent human 20S","surprisingly excellent activator slightly less potent than Tat1-8,9Aib"
